Reference: PMC9329436, “Optimization of the 4-anilinoquin(az)oline scaffold as epidermal growth factor receptor (EGFR) inhibitors for chordoma utilizing a toxicology profiling assay platform” (Scientific Reports, 2022)
Read-outs that look alike come from different tables or passages of the source.

Legend:
[1] = test system: CH22 patient-derived chordoma cell line; experiment: Cell viability assay (alamarBlue, 72 h), CH22; format: cell-based, human; details: n = 4, 72 h
Method in brief: (§1)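 Patient-derived chordoma lines and WS1 fibroblasts seeded in 384-well plates, dosed in quadruplicate 24 h after plating.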

U-CH1 chordoma cell line = experiment: Cell viability assay (alamarBlue, 72 h), U-CH1; format: cell-based, human; details: n = 4, 72 h
Method in brief: (§2)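 Compound added in quadruplicate 24 h after plating; cultures maintained in 4:1 IMDM:RPMI, 10% FBS, gel-coated flasks.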

EGFR = EGFR (Homo sapiens, UniProt P00533); experiment: ProQinase in-cell EGFR assay (EGFR phosphorylation in A431 cells); format: cell-based; design: This cell line endogenously expresses a high level of EGFR; endogenous in cells; host or cells: A431
Chain of EGFR (P00533 25-1210): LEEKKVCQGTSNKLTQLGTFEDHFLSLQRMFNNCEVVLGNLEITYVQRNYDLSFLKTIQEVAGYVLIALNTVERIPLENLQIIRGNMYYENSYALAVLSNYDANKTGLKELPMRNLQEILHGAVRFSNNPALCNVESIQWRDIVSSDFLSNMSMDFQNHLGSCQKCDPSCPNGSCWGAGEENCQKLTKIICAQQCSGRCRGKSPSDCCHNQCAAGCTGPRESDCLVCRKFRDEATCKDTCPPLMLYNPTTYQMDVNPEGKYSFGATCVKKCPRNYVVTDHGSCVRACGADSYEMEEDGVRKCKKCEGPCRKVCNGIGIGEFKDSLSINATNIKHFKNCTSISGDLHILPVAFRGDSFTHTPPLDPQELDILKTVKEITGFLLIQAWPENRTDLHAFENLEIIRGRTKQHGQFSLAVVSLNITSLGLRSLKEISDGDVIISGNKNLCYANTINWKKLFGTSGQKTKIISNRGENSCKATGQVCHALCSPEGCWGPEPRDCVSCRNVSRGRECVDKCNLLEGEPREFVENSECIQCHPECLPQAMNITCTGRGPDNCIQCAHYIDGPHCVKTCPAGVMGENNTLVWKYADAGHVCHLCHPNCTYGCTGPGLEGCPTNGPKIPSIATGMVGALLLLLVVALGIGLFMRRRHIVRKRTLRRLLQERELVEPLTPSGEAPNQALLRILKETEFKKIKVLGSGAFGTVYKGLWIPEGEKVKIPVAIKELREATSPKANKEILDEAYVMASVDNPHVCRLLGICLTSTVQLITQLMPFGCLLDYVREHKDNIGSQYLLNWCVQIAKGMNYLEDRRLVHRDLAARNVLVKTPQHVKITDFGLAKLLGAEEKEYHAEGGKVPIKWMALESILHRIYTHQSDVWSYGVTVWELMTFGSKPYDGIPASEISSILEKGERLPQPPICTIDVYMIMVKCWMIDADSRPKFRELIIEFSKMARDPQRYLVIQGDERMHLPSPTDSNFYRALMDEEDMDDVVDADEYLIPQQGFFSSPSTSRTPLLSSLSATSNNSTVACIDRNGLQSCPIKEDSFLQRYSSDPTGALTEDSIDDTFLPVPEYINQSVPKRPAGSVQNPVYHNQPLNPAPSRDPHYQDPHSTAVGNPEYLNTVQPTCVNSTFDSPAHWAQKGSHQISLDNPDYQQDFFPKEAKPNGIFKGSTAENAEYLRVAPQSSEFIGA
Excerpt: In addition, we ran an EGFR in-cell target engagement assay, measuring in-cell EGFR phosphorylation, using the human epidermoid carcinoma cell line A431. This cell line endogenously expresses a high level of EGFR, and stimulation of these cells with human epidermal growth factor (EGF) results in receptor tyrosine autophosphorylation.

[2] = test system: U-CH12 patient-derived chordoma cell line; experiment: Cell viability assay (alamarBlue, 72 h), U-CH12; format: cell-based, human; details: n = 4, 72 h
Method in brief: as §1

[3] = test system: UM-Chor1 patient-derived chordoma cell line; experiment: Cell viability assay (alamarBlue, 72 h), UM-Chor1; format: cell-based, human; details: n = 4, 72 h
Method in brief: as §1

U-CH2 chordoma cell line = experiment: Cell viability assay (alamarBlue, 72 h), U-CH2; format: cell-based, human; details: n = 4, 72 h
Method in brief: as §2

[4] = test system: WS1 human fibroblast cell line; experiment: Cell viability assay, WS1 toxicity control; format: cell-based; details: n = 4, nonspecific toxicity control
Method in brief: as §1

[5] = target: T1, 320 wild-type protein kinases (Homo sapiens, UniProt P43403); format: biochemical; details: kinase ZAP70, singlicate
T1 sequence (P43403 1-619): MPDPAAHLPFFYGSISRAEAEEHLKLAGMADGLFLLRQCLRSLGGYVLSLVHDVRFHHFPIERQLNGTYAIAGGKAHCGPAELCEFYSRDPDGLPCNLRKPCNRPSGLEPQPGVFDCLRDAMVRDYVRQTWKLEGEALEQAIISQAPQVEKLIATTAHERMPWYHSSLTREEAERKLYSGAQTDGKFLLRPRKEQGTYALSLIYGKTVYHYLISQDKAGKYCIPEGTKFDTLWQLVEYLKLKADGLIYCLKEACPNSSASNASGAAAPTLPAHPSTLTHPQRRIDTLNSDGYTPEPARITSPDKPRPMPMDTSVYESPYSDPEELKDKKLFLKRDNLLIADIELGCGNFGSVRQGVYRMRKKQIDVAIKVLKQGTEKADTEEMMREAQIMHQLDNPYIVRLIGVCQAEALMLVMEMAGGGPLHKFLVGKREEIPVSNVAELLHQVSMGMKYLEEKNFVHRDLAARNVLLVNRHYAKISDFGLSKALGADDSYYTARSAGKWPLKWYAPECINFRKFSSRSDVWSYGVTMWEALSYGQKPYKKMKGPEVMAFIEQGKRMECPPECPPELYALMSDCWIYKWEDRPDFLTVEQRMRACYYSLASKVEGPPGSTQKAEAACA
Excerpt: (§3) Table S4. Profiling of two compounds at two concentrations against 320 wild-type protein kinases; singlicate measurement; Residual activities (% of control).

[6] = target: 320 wild-type protein kinases (Homo sapiens, UniProt Q9H3Y6); format: biochemical; details: kinase SRMS, singlicate
Chain of 320 wild-type protein kinases (Homo sapiens, UniProt Q9H3Y6) (Q9H3Y6 whole entry): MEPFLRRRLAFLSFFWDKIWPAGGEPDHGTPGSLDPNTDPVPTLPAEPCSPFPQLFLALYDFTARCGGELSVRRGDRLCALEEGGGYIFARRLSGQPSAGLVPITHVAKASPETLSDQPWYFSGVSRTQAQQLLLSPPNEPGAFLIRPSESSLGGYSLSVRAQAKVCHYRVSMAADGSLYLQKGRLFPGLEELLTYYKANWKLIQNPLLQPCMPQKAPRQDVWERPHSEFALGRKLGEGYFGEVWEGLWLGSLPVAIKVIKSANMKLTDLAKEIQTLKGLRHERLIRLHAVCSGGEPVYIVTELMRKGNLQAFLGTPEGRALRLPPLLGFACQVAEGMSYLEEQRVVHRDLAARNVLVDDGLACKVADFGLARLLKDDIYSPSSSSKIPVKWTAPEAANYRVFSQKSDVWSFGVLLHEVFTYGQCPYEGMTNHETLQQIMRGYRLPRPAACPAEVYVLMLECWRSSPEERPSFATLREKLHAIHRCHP
Excerpt: as §3

[7] = target: T2, 320 wild-type protein kinases (Homo sapiens, UniProt Q16566); format: biochemical; details: singlicate
T2 sequence (Q16566 1-473): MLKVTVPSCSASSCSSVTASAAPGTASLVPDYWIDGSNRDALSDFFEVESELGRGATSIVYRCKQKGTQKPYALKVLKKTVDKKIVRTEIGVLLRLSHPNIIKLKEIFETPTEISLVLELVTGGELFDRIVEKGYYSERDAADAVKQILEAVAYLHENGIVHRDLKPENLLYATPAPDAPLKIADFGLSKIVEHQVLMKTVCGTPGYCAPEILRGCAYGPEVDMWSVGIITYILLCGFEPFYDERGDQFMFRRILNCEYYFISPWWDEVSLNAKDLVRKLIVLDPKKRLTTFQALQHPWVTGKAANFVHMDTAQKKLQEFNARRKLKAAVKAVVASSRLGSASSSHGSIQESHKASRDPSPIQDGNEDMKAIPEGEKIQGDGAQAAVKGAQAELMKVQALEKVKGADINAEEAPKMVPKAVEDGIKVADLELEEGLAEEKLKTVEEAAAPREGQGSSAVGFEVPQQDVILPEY
Excerpt: as §3

[8] = target: 320 wild-type protein kinases (Homo sapiens, UniProt P31751); format: biochemical; details: singlicate
Chain of 320 wild-type protein kinases (Homo sapiens, UniProt P31751) (P31751 whole entry): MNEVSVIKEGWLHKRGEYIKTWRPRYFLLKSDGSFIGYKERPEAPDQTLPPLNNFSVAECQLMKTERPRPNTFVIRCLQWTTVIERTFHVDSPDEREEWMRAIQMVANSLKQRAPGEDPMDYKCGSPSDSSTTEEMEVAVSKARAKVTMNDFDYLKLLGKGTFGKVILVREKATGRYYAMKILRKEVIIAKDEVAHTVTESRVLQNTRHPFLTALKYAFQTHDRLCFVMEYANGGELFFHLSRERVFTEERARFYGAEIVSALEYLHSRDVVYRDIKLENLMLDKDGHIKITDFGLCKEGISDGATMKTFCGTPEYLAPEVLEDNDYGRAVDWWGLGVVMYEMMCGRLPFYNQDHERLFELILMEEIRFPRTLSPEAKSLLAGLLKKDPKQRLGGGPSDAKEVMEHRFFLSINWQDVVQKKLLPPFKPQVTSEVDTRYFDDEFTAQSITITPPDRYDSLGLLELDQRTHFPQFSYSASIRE
Excerpt: as §3

[9] = test system: U-CH7 patient-derived chordoma cell line; experiment: Cell viability assay (alamarBlue, 72 h), U-CH7; format: cell-based, human; details: n = 4, 72 h
Method in brief: as §1

[10] = ProQinase in-cell EGFR assay, A431 cells, n = 1

| Structure (SMILES) | IC50 [1] [µM] | IC50 (U-CH1 chordoma cell line) [µM] | IC50 (EGFR; [10]) [µM] | IC50 [2] [µM] | IC50 [3] [µM] | IC50 (U-CH2 chordoma cell line) [µM] | IC50 [4] [µM] | Residual activity, ZAP70 ([5]; assay conc. 1.0E-06 M) | Residual activity, ZAP70 ([5]; assay conc. 1.0E-07 M) | Residual activity, SRMS ([6]; assay conc. 1.0E-06 M) | Residual activity, SRMS ([6]; assay conc. 1.0E-07 M) | Residual activity ([7]; CAMK4, 1.0E-06 M) | Residual activity ([7]; CAMK4, 1.0E-07 M) | Residual activity ([8]; AKT2 aa107-481, 1.0E-06 M) | Residual activity ([8]; AKT2 aa107-481, 1.0E-07 M) | IC50 [9] [µM] | IC50 (EGFR; in-cell EGFR inhibition) [µM] |
| --- | --- | --- | --- | --- | --- | --- | --- | --- | --- | --- | --- | --- | --- | --- | --- | --- | --- |
| C#Cc1cc(Nc2ncnc3cc(I)ccc23)ccc1Cl [Compound 41] | 0.48 | 9.1 | 3.7 | 0.96 | 25 | 16 | 36 | 103 % of control | 111 % of control | 98 % of control | 113 % of control | 91 % of control | 84 % of control | 86 % of control | 98 % of control | 8 |  |
| C#Cc1cc(Nc2ncnc3cc(OC)c(OC)cc23)ccc1Cl [Compound 45] | 1.2 | > 100 | 0.018 | 3 | 60 | 35 | > 100 | 104 % of control | 100 % of control | 103 % of control | 124 % of control | 89 % of control | 84 % of control | 94 % of control | 112 % of control | 74 | < 0.1 |
